Data from patent US20070128217A1 (priority 2003, published 2007).

Tests used:
[1] = tested on: rabbit serum obtained by immunizing a rabbit with the SARS-CoV strain Frankfurt 1; assay type: binding; design: Binding of a rabbit serum to linear peptides / Binding of a rabbit serum to looped peptides / Rabbit serum linear peptides / Rabbit serum looped peptides / Binding of a rabbit serum to linear peptides of protein N of SARS-CoV Urbani (Rabbit serum linear peptides) / Binding of a rabbit serum to looped/cyclic peptides of protein N of SARS-CoV Urbani (Rabbit serum looped peptides): unit not given here
[2] = tested on: recombinant human anti-SARS-CoV antibody 03-018; assay type: binding; design: Binding of antibody 03-018 to linear peptides of the N protein of SARS-CoV Urbani / Binding of antibody 03-018 to looped/cyclic peptides of the N protein of SARS-CoV Urbani: unit not given here
[3] = tested on: antibodies in sera from SARS patients (sera 1a, 1b, 2, 6, 37, 62, London, SARS-yellow, SARS-green); assay type: binding, human; design: Binding of serum 6 to linear peptides of protein X1 of SARS-CoV Urbani / Binding of serum 37 to linear peptides of protein X1 of SARS-CoV Urbani / Binding of serum 6 to looped/cyclic peptide (PEPSCAN-ELISA) / Binding of serum 37 to looped/cyclic peptide (PEPSCAN-ELISA) / Binding of serum 37 to looped/cyclic peptides of protein X1 of SARS-CoV Urbani / Binding of serum 6 to linear peptides of protein X2 / Binding of serum 37 to linear peptides of protein X2 / Binding of serum 37 to looped/cyclic peptides of protein X2 of SARS-CoV Urbani / Binding of serum 6 to linear peptides of protein M of SARS-CoV Urbani / Binding of serum 37 to linear peptides of protein M of SARS-CoV Urbani / Binding of serum 6 to looped/cyclic peptides of protein M of SARS-CoV Urbani / Binding of serum 37 to looped/cyclic peptides of protein M of SARS-CoV Urbani / Binding of serum 6 to linear peptides of protein X3 of SARS-CoV Urbani / Binding of serum 37 to linear peptides of protein X3 of SARS-CoV Urbani / Binding of serum 37 to looped/cyclic peptides of protein X3 of SARS-CoV Urbani / Binding of serum 6 to linear peptides of protein X4 of SARS-CoV Urbani / Binding of serum 37 to linear peptides of protein X4 of SARS-CoV Urbani / Binding of serum 37 to looped/cyclic peptides of protein X4 of SARS-CoV Urbani / Binding of serum 6 to linear peptides of protein X5 of SARS-CoV Urbani / Binding of serum 37 to linear peptides of protein X5 of SARS-CoV Urbani / Binding of serum 37 to looped/cyclic peptides of protein X5 of SARS-CoV Urbani / Binding of serum 6 to linear peptides of protein N of SARS-CoV Urbani / Binding of serum 37 to linear peptides of protein N of SARS-CoV Urbani / Binding of serum 6 to linear peptide (PEPSCAN-ELISA) / Binding of serum 1a to looped/cyclic peptides of protein N of SARS-CoV Urbani / Binding of serum 1b to looped/cyclic peptides of protein N of SARS-CoV Urbani / Binding of serum 2 to looped/cyclic peptides of protein N of SARS-CoV Urbani / Binding of serum 6 to looped/cyclic peptides of protein N of SARS-CoV Urbani / Binding of serum 37 to looped/cyclic peptides of protein N of SARS-CoV Urbani / Binding of serum 62 to looped/cyclic peptides of protein N of SARS-CoV Urbani / Binding of serum London to looped/cyclic peptides of protein N of SARS-CoV Urbani / Binding of serum SARS-green to looped/cyclic peptides of protein N of SARS-CoV Urbani: unit not given here
[4] = tested on: control sera (pooled serum of ten healthy LUMC hospital workers; commercial negative donor pooled serum from the Dutch bloodbank); assay type: binding, human; design: Binding of Control serum LUMC to linear peptides / Binding of Control serum Blood-bank to linear peptides / Binding of Control serum LUMC to looped peptides / Binding of Control Serum Blood-Bank to Looped peptides / Binding of Control serum LUMC to linear peptides of the protein M of SARS-CoV Urbani / Binding of Control serum Blood-bank to linear peptides of the protein M of SARS-CoV Urbani / Binding of Control serum LUMC to looped peptides of the protein M of SARS-CoV Urbani / Binding of Control Serum Blood-Bank to Looped peptides of the protein M of SARS-CoV Urbani: unit not given here

| Sequence | Binding of a rabbit serum to linear peptides of protein N of SARS-CoV Urbani (Rabbit serum linear peptides) [1] | Binding of a rabbit serum to looped/cyclic peptides of protein N of SARS-CoV Urbani (Rabbit serum looped peptides) [1] | Binding of antibody 03-018 to linear peptides of the N protein of SARS-CoV Urbani [2] | Binding of antibody 03-018 to looped/cyclic peptides of the N protein of SARS-CoV Urbani [2] | Binding of serum 1a to linear peptides of protein N of SARS-CoV Urbani [3] | Binding of serum 1a to looped/cyclic peptides of protein N of SARS-CoV Urbani [3] | Binding of serum 1b to linear peptides of protein N of SARS-CoV Urbani [3] | Binding of serum 1b to looped/cyclic peptides of protein N of SARS-CoV Urbani [3] | Binding of serum 2 to linear peptides of protein N of SARS-CoV Urbani [3] | Binding of serum 2 to looped/cyclic peptides of protein N of SARS-CoV Urbani [3] | Binding of serum 6 to linear peptides of protein N of SARS-CoV Urbani [3] | Binding of serum 6 to looped/cyclic peptides of protein N of SARS-CoV Urbani [3] | Binding of serum 37 to linear peptides of protein N of SARS-CoV Urbani [3] | Binding of serum 37 to looped/cyclic peptides of protein N of SARS-CoV Urbani [3] | Binding of serum 62 to linear peptides of protein N of SARS-CoV Urbani [3] | Binding of serum 62 to looped/cyclic peptides of protein N of SARS-CoV Urbani [3] | Binding of serum London to linear peptides of protein N of SARS-CoV Urbani [3] | Binding of serum London to looped/cyclic peptides of protein N of SARS-CoV Urbani [3] | Binding of serum SARS-green to linear peptides of protein N of SARS-CoV Urbani [3] | Binding of serum SARS-green to looped/cyclic peptides of protein N of SARS-CoV Urbani [3] | other results |
| --- | --- | --- | --- | --- | --- | --- | --- | --- | --- | --- | --- | --- | --- | --- | --- | --- | --- | --- | --- | --- | --- |
| GTGPEASLPYGANKE | 0.1 | 0.3 | 0.1 | 0.2 | 0.3 | 0.2 | 0.1 | 0.2 | 0.3 | 0.2 | 0.2 | 0.1 | 0.9 | 0.4 | 0.9 | 0.3 | 0.7 | 0.3 | 0.7 | 0.2 | Binding of serum SARS-yellow to linear peptides of protein N of SARS-CoV Urbani [3]: 0.6; Binding of serum SARS-yellow to looped/cyclic peptides of protein N of SARS-CoV Urbani [3]: 0.2; Binding of Control Serum Blood-Bank to Looped peptides [4]: 0.4; Binding of Control serum Blood-bank to linear peptides [4]: 0.7; Binding of Control serum LUMC to linear peptides [4]: 0.8; Binding of Control serum LUMC to looped peptides [4]: 0.4 |
| KVSGKGQQQQGQTVT | 0.2 | 0.4 | 0.1 | 0.2 | – | 0.3 | – | 0.2 | – | 0.5 | – | 0.3 | – | 0.4 | – | 0.4 | – | 0.6 | – | 0.5 | Binding of serum 1a to linear peptide (PEPSCAN-ELISA) [3]: 0.3; Binding of serum 1b to linear peptide (PEPSCAN-ELISA) [3]: 0.1; Binding of serum 2 to linear peptide (PEPSCAN-ELISA) [3]: 0.3; Binding of serum 6 to linear peptide (PEPSCAN-ELISA) [3]: 0.2; Binding of serum 37 to linear peptide (PEPSCAN-ELISA) [3]: 0.6; Binding of serum 62 to linear peptide (PEPSCAN-ELISA) [3]: 0.6; Binding of serum London to linear peptide (PEPSCAN-ELISA) [3]: 0.5; Binding of serum SARS-green to linear peptide (PEPSCAN-ELISA) [3]: 0.6; Binding of serum SARS-yellow to linear peptide (PEPSCAN-ELISA) [3]: 0.6; Binding of serum SARS-yellow to looped/cyclic peptides of protein N of SARS-CoV Urbani [3]: 0.3; Binding of Control Serum Blood-Bank to Looped peptides [4]: 0.6; Binding of Control serum Blood-bank to linear peptides [4]: 0.8; Binding of Control serum LUMC to linear peptides [4]: 0.7; Binding of Control serum LUMC to looped peptides [4]: 0.5 |
| SDNGPQSNQRSAPRI | 0.1 | 0.2 | 0.0 | 0.2 | 0.2 | 0.3 | 0.0 | 0.0 | 0.1 | 0.3 | 0.2 | 0.3 | 0.2 | 0.5 | 0.4 | 0.4 | 0.5 | 0.4 | 0.0 | 0.2 | Binding of serum SARS-yellow to linear peptides of protein N of SARS-CoV Urbani [3]: 0.5; Binding of serum SARS-yellow to looped/cyclic peptides of protein N of SARS-CoV Urbani [3]: 0.1; Binding of Control Serum Blood-Bank to Looped peptides [4]: 0.5; Binding of Control serum Blood-bank to linear peptides [4]: 0.6; Binding of Control serum LUMC to linear peptides [4]: 0.5; Binding of Control serum LUMC to looped peptides [4]: 0.5 |
| ASLPYGANKEGIVWV | 0.2 | 0.2 | 0.1 | 0.3 | 0.2 | 0.4 | 0.1 | 0.3 | 0.2 | 0.7 | 0.1 | 0.3 | 0.6 | 1.0 | 0.5 | 1.0 | 0.4 | 0.6 | 0.1 | 0.8 | Binding of serum SARS-yellow to linear peptides of protein N of SARS-CoV Urbani [3]: 0.5; Binding of serum SARS-yellow to looped/cyclic peptides of protein N of SARS-CoV Urbani [3]: 0.3; Binding of Control Serum Blood-Bank to Looped peptides [4]: 0.9; Binding of Control serum Blood-bank to linear peptides [4]: 0.7; Binding of Control serum LUMC to linear peptides [4]: 0.6; Binding of Control serum LUMC to looped peptides [4]: 0.8 |
| RQKKQPTVTLLPAAD | 0.1 | 0.4 | 0.1 | 0.2 | 0.3 | – | 0.2 | – | 0.2 | – | 0.2 | – | 0.7 | – | 0.8 | – | 0.6 | – | 0.6 | – | Binding of serum SARS-yellow to linear peptides of protein N of SARS-CoV Urbani [3]: 0.6; Recognition of the peptide by sera of SARS-CoV infected individuals, and form (linear, looped/cyclic) in which it is recognized [3]: recognized in looped/cyclic form; Control Serum Blood-Bank Looped peptides [4]: 0.6; Control serum Blood-bank linear peptides [4]: 0.7; Control serum LUMC linear peptides [4]: 0.8; Control serum LUMC looped peptides [4]: 0.5 |
